{
  "source": "patent US20240270762A1",
  "about": "“PENICILLIN-BINDING PROTEIN INHIBITORS” (priority 2021, published 2024)",
  "key": {"B. pseudomallei Bp82": {"tested_on": "B. pseudomallei Bp82", "test": "microbe, parasite or virus in culture", "type": "cell-based", "conditions": "Burkholderia pseudomallei, BP82, read-out: Minimum inhibitory concentration, B. pseudomallei Bp82"}, "A. baumannii PBP2": {"target": "A. baumannii PBP2 (Acinetobacter baumannii, UniProt D0C8Z9)", "sequence (D0C8Z9 whole entry)": "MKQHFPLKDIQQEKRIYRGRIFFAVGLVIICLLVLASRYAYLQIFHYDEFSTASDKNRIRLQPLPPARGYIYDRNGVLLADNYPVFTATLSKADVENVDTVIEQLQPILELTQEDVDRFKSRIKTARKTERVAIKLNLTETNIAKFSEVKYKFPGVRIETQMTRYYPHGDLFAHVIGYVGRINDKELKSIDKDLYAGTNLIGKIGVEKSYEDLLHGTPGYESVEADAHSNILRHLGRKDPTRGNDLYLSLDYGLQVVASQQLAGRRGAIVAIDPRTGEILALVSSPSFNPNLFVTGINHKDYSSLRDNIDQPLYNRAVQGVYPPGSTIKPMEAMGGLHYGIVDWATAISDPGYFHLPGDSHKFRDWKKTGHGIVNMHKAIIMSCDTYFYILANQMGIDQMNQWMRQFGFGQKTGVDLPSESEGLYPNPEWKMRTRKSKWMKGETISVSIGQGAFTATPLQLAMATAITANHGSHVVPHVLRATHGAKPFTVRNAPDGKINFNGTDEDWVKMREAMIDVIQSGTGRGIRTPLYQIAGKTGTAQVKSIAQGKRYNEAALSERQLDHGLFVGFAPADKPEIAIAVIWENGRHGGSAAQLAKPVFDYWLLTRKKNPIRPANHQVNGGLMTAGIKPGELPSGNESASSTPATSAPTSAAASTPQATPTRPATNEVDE", "test": "Bocillin-FL competition binding via gel filtration, A. baumannii PBP2", "how_it_was_run": "(§1)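 Enzyme was pre-incubated with rising inhibitor concentrations, then Bocillin-FL was added and incubated 15 minutes more. Bound probe was separated by gel filtration and fluorescence read. EC50 came from fitting fraction of PBP labelled versus inhibitor concentration to a Hill equation with ymin, ymax and n.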"}, "A. baumannii PBP1a": {"target": "T1, A. baumannii PBP1a (Acinetobacter baumannii, UniProt A0ABX6CK30)", "T1 sequence (A0ABX6CK30 1-851)": "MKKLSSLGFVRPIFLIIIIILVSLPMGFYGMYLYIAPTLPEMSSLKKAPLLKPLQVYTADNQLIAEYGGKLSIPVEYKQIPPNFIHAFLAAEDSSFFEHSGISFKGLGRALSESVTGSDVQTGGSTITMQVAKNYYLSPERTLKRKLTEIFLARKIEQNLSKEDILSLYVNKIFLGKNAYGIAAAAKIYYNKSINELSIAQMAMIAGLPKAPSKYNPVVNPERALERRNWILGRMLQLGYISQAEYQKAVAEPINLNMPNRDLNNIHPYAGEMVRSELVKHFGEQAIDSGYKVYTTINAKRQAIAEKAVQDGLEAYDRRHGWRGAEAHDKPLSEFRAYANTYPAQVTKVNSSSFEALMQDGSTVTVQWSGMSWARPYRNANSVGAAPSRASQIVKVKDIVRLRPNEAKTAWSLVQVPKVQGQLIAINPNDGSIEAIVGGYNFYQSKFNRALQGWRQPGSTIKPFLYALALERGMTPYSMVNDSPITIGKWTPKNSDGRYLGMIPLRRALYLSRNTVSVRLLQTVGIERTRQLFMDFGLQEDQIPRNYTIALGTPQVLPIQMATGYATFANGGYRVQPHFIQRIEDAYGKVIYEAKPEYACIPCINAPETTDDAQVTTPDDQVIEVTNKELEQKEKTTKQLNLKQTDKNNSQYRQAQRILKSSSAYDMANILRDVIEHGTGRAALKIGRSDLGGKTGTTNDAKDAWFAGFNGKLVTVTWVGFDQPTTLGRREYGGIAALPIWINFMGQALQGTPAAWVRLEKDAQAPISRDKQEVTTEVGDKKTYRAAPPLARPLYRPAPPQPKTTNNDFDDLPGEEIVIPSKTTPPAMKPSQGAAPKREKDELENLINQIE", "test": "Bocillin-FL competition binding via gel filtration, A. baumannii PBP1a", "conditions": "competition binding assay using Bocillin-FL via gel filtration; read-out: A. baumannii PBP1a Potency", "how_it_was_run": "as §1"}},
  "data": [
    {"smiles": "O=C(NCCCN1CCN(C(=O)NC(C(=O)N[C@H]2Cc3ccc(F)c(C(=O)O)c3OB2O)c2cc(F)c(O)c(O)c2Cl)C(=O)C1=O)c1ccc(O)cc1", "note": "(stereo partly drawn) [Example 203, (3R)-3-(2-(2-chloro-5-fluoro-3,4-dihydroxyphenyl)-2-(4-(3-(4-hydroxybenzamido)propyl)-2,3-dioxopiperazine-1-carboxamido)acetamido)-7-fluoro-2-hydroxy-3,4-dihydro-2H-benzo[e][1,2]oxaborinine-8-carboxylic acid]", "values": [
      {"measurement": "MIC", "setting": "B. pseudomallei Bp82", "value": "< 1", "unit": "mg/L"},
      {"measurement": "EC50", "setting": "A. baumannii PBP2", "value": "10 to 50", "unit": "µM"},
      {"measurement": "EC50", "setting": "A. baumannii PBP1a", "value": "< 10", "unit": "µM"}
    ]},
    {"smiles": "O=C(NCCCN1CCN(C(=O)NC(C(=O)N[C@H]2Cc3ccc(F)c(C(=O)O)c3OB2O)c2cc(F)c(O)c(O)c2Cl)C(=O)C1=O)c1cccc(O)c1", "note": "(stereo partly drawn) [Example 204, (3R)-3-(2-(2-chloro-5-fluoro-3,4-dihydroxyphenyl)-2-(4-(3-(3-hydroxybenzamido)propyl)-2,3-dioxopiperazine-1-carboxamido)acetamido)-7-fluoro-2-hydroxy-3,4-dihydro-2H-benzo[e][1,2]oxaborinine-8-carboxylic acid]", "values": [
      {"measurement": "MIC", "setting": "B. pseudomallei Bp82", "value": "< 1", "unit": "mg/L"},
      {"measurement": "EC50", "setting": "A. baumannii PBP2", "value": "10 to 50", "unit": "µM"},
      {"measurement": "EC50", "setting": "A. baumannii PBP1a", "value": "10 to 50", "unit": "µM"}
    ]},
    {"smiles": "CN(CCN1CCN(C(=O)N[C@@H](C(=O)N[C@H]2Cc3ccc(F)c(C(=O)O)c3OB2O)c2cc(F)c(O)c(O)c2Cl)C(=O)C1=O)Cc1ccc(N)nc1", "note": "[Example 209, (R)-3-((R)-2-(4-(2-(((6-aminopyridin-3-yl)methyl)(methyl)amino)ethyl)-2,3-dioxopiperazine-1-carboxamido)-2-(2-chloro-5-fluoro-3,4-dihydroxyphenyl)acetamido)-7-fluoro-2-hydroxy-3,4-dihydro-2H-benzo[e][1,2]oxaborinine-8-carboxylic acid]", "values": [
      {"measurement": "MIC", "setting": "B. pseudomallei Bp82", "value": "< 1", "unit": "mg/L"},
      {"measurement": "EC50", "setting": "A. baumannii PBP1a", "value": "10 to 50", "unit": "µM"}
    ]},
    {"smiles": "CN(CCN1CCN(C(=O)NC(C(=O)N[C@H]2Cc3ccc(F)c(C(=O)O)c3OB2O)c2cc(F)c(O)c(O)c2Cl)C(=O)C1=O)S(=O)(=O)c1ccc(C(N)=O)cc1", "note": "(stereo partly drawn) [Example 223, (3R)-3-(2-(4-(2-((4-carbamoyl-N-methylphenyl)sulfonamido)ethyl)-2,3-dioxopiperazine-1-carboxamido)-2-(2-chloro-5-fluoro-3,4-dihydroxyphenyl)acetamido)-7-fluoro-2-hydroxy-3,4-dihydro-2H-benzo[e][1,2]oxaborinine-8-carboxylic acid]", "values": [
      {"measurement": "MIC", "setting": "B. pseudomallei Bp82", "value": "< 1", "unit": "mg/L"},
      {"measurement": "EC50", "setting": "A. baumannii PBP1a", "value": "< 10", "unit": "µM"}
    ]},
    {"smiles": "CN(CCN1CCN(C(=O)NC(C(=O)N[C@H]2Cc3ccc(F)c(C(=O)O)c3OB2O)c2cc(F)c(O)c(O)c2Cl)C(=O)C1=O)S(=O)(=O)c1cccc(C(N)=O)c1", "note": "(stereo partly drawn) [Example 224, (3R)-3-(2-(4-(2-((3-carbamoyl-N-methylphenyl)sulfonamido)ethyl)-2,3-dioxopiperazine-1-carboxamido)-2-(2-chloro-5-fluoro-3,4-dihydroxyphenyl)acetamido)-7-fluoro-2-hydroxy-3,4-dihydro-2H-benzo[e][1,2]oxaborinine-8-carboxylic acid]", "values": [
      {"measurement": "MIC", "setting": "B. pseudomallei Bp82", "value": "< 1", "unit": "mg/L"},
      {"measurement": "EC50", "setting": "A. baumannii PBP1a", "value": "< 10", "unit": "µM"}
    ]},
    {"smiles": "CN(CCN1CCN(C(=O)N[C@@H](C(=O)N[C@H]2Cc3ccc(F)c(C(=O)O)c3OB2O)c2cc(F)c(O)c(O)c2Cl)C(=O)C1=O)Cc1cccc(C(N)=O)c1", "note": "[Example 225, (R)-3-((R)-2-(4-(2-((3-carbamoylbenzyl)(methyl)amino)ethyl)-2,3-dioxopiperazine-1-carboxamido)-2-(2-chloro-5-fluoro-3,4-dihydroxyphenyl)acetamido)-7-fluoro-2-hydroxy-3,4-dihydro-2H-benzo[e][1,2]oxaborinine-8-carboxylic acid]", "values": [
      {"measurement": "MIC", "setting": "B. pseudomallei Bp82", "value": "< 1", "unit": "mg/L"},
      {"measurement": "EC50", "setting": "A. baumannii PBP1a", "value": "10 to 50", "unit": "µM"}
    ]},
    {"smiles": "CN(CCN1CCN(C(=O)N[C@@H](C(=O)N[C@H]2Cc3ccc(F)c(C(=O)O)c3OB2O)c2cc(F)c(O)c(O)c2Cl)C(=O)C1=O)Cc1ccc(C(N)=O)cc1", "note": "[Example 226, (R)-3-((R)-2-(4-(2-((4-carbamoylbenzyl)(methyl)amino)ethyl)-2,3-dioxopiperazine-1-carboxamido)-2-(2-chloro-5-fluoro-3,4-dihydroxyphenyl)acetamido)-7-fluoro-2-hydroxy-3,4-dihydro-2H-benzo[e][1,2]oxaborinine-8-carboxylic acid]", "values": [
      {"measurement": "MIC", "setting": "B. pseudomallei Bp82", "value": "< 1", "unit": "mg/L"},
      {"measurement": "EC50", "setting": "A. baumannii PBP1a", "value": "10 to 50", "unit": "µM"}
    ]},
    {"smiles": "O=C(NCCN1CCN(C(=O)NC(C(=O)N[C@H]2Cc3ccc(F)c(C(=O)O)c3OB2O)c2cc(F)c(O)c(O)c2Cl)C1=O)c1nccs1", "note": "(stereo partly drawn) [Example 247, (3R)-3-(2-(2-chloro-5-fluoro-3,4-dihydroxyphenyl)-2-(2-oxo-3-(2-(thiazole-2-carboxamido)ethyl)imidazolidine-1-carboxamido)acetamido)-7-fluoro-2-hydroxy-3,4-dihydro-2H-benzo[e][1,2]oxaborinine-8-carboxylic acid]", "values": [
      {"measurement": "MIC", "setting": "B. pseudomallei Bp82", "value": "< 1", "unit": "mg/L"},
      {"measurement": "EC50", "setting": "A. baumannii PBP2", "value": "10 to 50", "unit": "µM"}
    ]},
    {"smiles": "O=C(NCCN1CCN(C(=O)NC(C(=O)N[C@H]2Cc3ccc(F)c(C(=O)O)c3OB2O)c2cc(F)c(O)c(O)c2Cl)C1=O)Nc1cccc(O)c1", "note": "(stereo partly drawn) [Example 249, (3R)-3-(2-(2-chloro-5-fluoro-3,4-dihydroxyphenyl)-2-(3-(2-(3-(3-hydroxyphenyl)ureido)ethyl)-2-oxoimidazolidine-1-carboxamido)acetamido)-7-fluoro-2-hydroxy-3,4-dihydro-2H-benzo[e][1,2]oxaborinine-8-carboxylic acid]", "values": [
      {"measurement": "MIC", "setting": "B. pseudomallei Bp82", "value": "< 1", "unit": "mg/L"},
      {"measurement": "EC50", "setting": "A. baumannii PBP1a", "value": "10 to 50", "unit": "µM"}
    ]},
    {"smiles": "O=C(NCCS(=O)(=O)N1CCN(C(=O)NC(C(=O)N[C@H]2Cc3ccc(F)c(C(=O)O)c3OB2O)c2cc(F)c(O)c(O)c2Cl)C1=O)c1cccnc1", "note": "(stereo partly drawn) [Example 262, (3R)-3-(2-(2-chloro-5-fluoro-3,4-dihydroxyphenyl)-2-(3-((2-(nicotinamido)ethyl)sulfonyl)-2-oxoimidazolidine-1-carboxamido)acetamido)-7-fluoro-2-hydroxy-3,4-dihydro-2H-benzo[e][1,2]oxaborinine-8-carboxylic acid]", "values": [
      {"measurement": "MIC", "setting": "B. pseudomallei Bp82", "value": "< 1", "unit": "mg/L"}
    ]},
    {"smiles": "O=C(NCCS(=O)(=O)N1CCN(C(=O)N[C@@H](C(=O)N[C@H]2Cc3ccc(F)c(C(=O)O)c3OB2O)c2cc(F)c(O)c(O)c2Cl)C1=O)c1nccs1", "note": "[Example 264, (R)-3-((R)-2-(2-chloro-5-fluoro-3,4-dihydroxyphenyl)-2-(2-oxo-3-((2-(thiazole-2-carboxamido)ethyl)sulfonyl)imidazolidine-1-carboxamido)acetamido)-7-fluoro-2-hydroxy-3,4-dihydro-2H-benzo[e][1,2]oxaborinine-8-carboxylic acid]", "values": [
      {"measurement": "MIC", "setting": "B. pseudomallei Bp82", "value": "< 1", "unit": "mg/L"}
    ]},
    {"smiles": "O=C(O)c1c(F)ccc2c1OB(O)[C@@H](NC(=O)C(NC(=O)N1CCN(S(=O)(=O)CCNC(=O)[C@@H]3CCCN3)C1=O)c1cc(F)c(O)c(O)c1Cl)C2", "note": "(stereo partly drawn) [Example 265, (3R)-3-(2-(2-chloro-5-fluoro-3,4-dihydroxyphenyl)-2-(2-oxo-3-((2-((S)-pyrrolidine-2-carboxamido)ethyl)sulfonyl)imidazolidine-1-carboxamido)acetamido)-7-fluoro-2-hydroxy-3,4-dihydro-2H-benzo[e][1,2]oxaborinine-8-carboxylic acid]", "values": [
      {"measurement": "MIC", "setting": "B. pseudomallei Bp82", "value": "< 1", "unit": "mg/L"}
    ]},
    {"smiles": "O=C(O)c1c(F)ccc2c1OB(O)[C@@H](NC(=O)C(NC(=O)N1CCN(S(=O)(=O)CCCNC(=O)[C@@H]3CCCN3)C1=O)c1cc(F)c(O)c(O)c1Cl)C2", "note": "(stereo partly drawn) [Example 275, (3R)-3-(2-(2-chloro-5-fluoro-3,4-dihydroxyphenyl)-2-(2-oxo-3-((3-((S)-pyrrolidine-2-carboxamido)propyl)sulfonyl)imidazolidine-1-carboxamido)acetamido)-7-fluoro-2-hydroxy-3,4-dihydro-2H-benzo[e][1,2]oxaborinine-8-carboxylic acid]", "values": [
      {"measurement": "MIC", "setting": "B. pseudomallei Bp82", "value": "< 1", "unit": "mg/L"}
    ]}
  ]
}
